Experimental data taken from ChEMBL document CHEMBL5620348, “3-Hydroxy-pyridin-4(1H)-ones as siderophores mediated delivery of isobavachalcone enhances antibacterial activity against pathogenic Pseudomonas aeruginosa” (Eur J Med Chem, 2023).
Active and inactive are the calls of the source. The calls are words filed in the database; no cut-off is given here.

Columns and labels:
[1] = tested on: Pseudomonas aeruginosa; assay: Antibacterial activity against Pseudomonas aeruginosa ATCC27853 assessed as inhibition of bacterial growth by measuring minimum inhibitory concentration incubated for 18 to 20 hrs in presence of M9 medium by broth microdilution assay; type: functional; settings: time 18-20 hrs
[2] = tested on: Pseudomonas aeruginosa; assay: Antibacterial activity against multi-drug resistant Pseudomonas aeruginosa clinical isolate 1167 assessed as inhibition of bacterial growth by measuring minimum inhibitory concentration incubated for 18 to 20 hrs in presence of M9 medium by broth microdilution assay; type: functional; settings: time 18-20 hrs
[3] = tested on: Pseudomonas aeruginosa; assay: Antibacterial activity against multi-drug resistant Pseudomonas aeruginosa clinical isolate FB assessed as inhibition of bacterial growth by measuring minimum inhibitory concentration incubated for 18 to 20 hrs in presence of M9 medium by broth microdilution assay; type: functional; settings: time 18-20 hrs
[4] = tested on: Pseudomonas aeruginosa; assay: Antibacterial activity against Pseudomonas aeruginosa PAO1 assessed as inhibition of bacterial growth incubated for 18 to 20 hrs in presence of MH medium by broth microdilution assay; type: functional, organism-based
[5] = tested on: Klebsiella pneumoniae; assay: Antibacterial activity against Klebsiella pneumoniae ATCC 700603 assessed as inhibition of bacterial growth by measuring minimum inhibitory concentration incubated for 18 to 20 hrs in presence of M9 medium by broth microdilution assay; type: functional; settings: time 18-20 hrs
[6] = tested on: Pseudomonas aeruginosa; assay: Antibacterial activity against multi-drug resistant Pseudomonas aeruginosa clinical isolate 1129 assessed as inhibition of bacterial growth by measuring minimum inhibitory concentration incubated for 18 to 20 hrs in presence of M9 medium by broth microdilution assay; type: functional; settings: time 18-20 hrs
[7] = tested on: Pseudomonas aeruginosa; assay: Antibacterial activity against Pseudomonas aeruginosa PAO1 assessed as inhibition of bacterial growth incubated for 18 to 20 hrs in presence of M9 and FeCl3 medium by broth microdilution assay; type: functional, organism-based
[8] = tested on: Pseudomonas aeruginosa; assay: Antibacterial activity against Pseudomonas aeruginosa PAO1 assessed as inhibition of bacterial growth by measuring minimum inhibitory concentration incubated for 18 to 20 hrs in presence of M9 medium by broth microdilution assay; type: functional; settings: time 18-20 hrs
[9] = tested on: Pseudomonas aeruginosa; assay: Antibacterial activity against Pseudomonas aeruginosa PAO1 assessed as inhibition of bacterial growth by measuring minimum inhibitory concentration incubated for 18 to 20 hrs in presence of M9 and FeCl3 medium by broth microdilution assay; type: functional; settings: time 18-20 hrs
[10] = tested on: Escherichia coli; assay: Antibacterial activity against Escherichia coli ATCC 25922 assessed as inhibition of bacterial growth by measuring minimum inhibitory concentration incubated for 18 to 20 hrs in presence of M9 medium by broth microdilution assay; type: functional; settings: time 18-20 hrs
[11] = tested on: Pseudomonas aeruginosa; assay: Antibacterial activity against Pseudomonas aeruginosa PAO1 assessed as inhibition of bacterial growth by measuring minimum inhibitory concentration incubated for 18 to 20 hrs in presence of MH medium by broth microdilution assay; type: functional; settings: time 18-20 hrs
[12] = tested on: Pseudomonas aeruginosa; assay: Antibacterial activity against Pseudomonas aeruginosa PAO1 assessed as inhibition of bacterial growth incubated for 18 to 20 hrs in presence of M9 medium by broth microdilution assay; type: functional, organism-based
[13] = tested on: Pseudomonas aeruginosa; assay: Antibacterial activity against multi-drug resistant Pseudomonas aeruginosa clinical isolate 1121 assessed as inhibition of bacterial growth by measuring minimum inhibitory concentration incubated for 18 to 20 hrs in presence of M9 medium by broth microdilution assay; type: functional; settings: time 18-20 hrs
[14] = tested on: Staphylococcus aureus; assay: Antibacterial activity against Staphylococcus aureus ATCC 25923 assessed as inhibition of bacterial growth by measuring minimum inhibitory concentration incubated for 18 to 20 hrs in presence of M9 medium by broth microdilution assay; type: functional; settings: time 18-20 hrs
[15] = tested on: Vero; assay: Cytotoxicity against green monkey Vero cells assessed as reduction in cell viability at 128 ug/ml incubated for 24 hrs by MTT assay; type: toxicity, cell-based; settings: chlorocebus sabaeus, dose 128 µg/ml
[16] = tested on: Pseudomonas aeruginosa; assay: Antibacterial activity against Pseudomonas aeruginosa PAO1 assessed as reduction in metabolic activity incubated for 6 hrs by resazurin reagent based microplate reader analysis; type: functional, organism-based
[17] = tested on: Pseudomonas aeruginosa; assay: Antibacterial activity against Pseudomonas aeruginosa PAO1 infected in Caenorhabditis elegans assessed as increase in worm survival rate at 0.5 times MIC incubated for 60 hrs; type: functional, organism-based
[18] = tested on: Cell membrane; assay: Disruption of cell membrane integrity in Pseudomonas aeruginosa PAO1 assessed as increase in nucleic acid leakage at 0.5 to 4 MIC incubated for 6 hrs by microplate reader analysis; type: cell membranes
[19] = tested on: Cell membrane; assay: Disruption of cell membrane integrity in Pseudomonas aeruginosa PAO1 assessed as increase in red fluorescence incubated for 5.5 hrs by propidium iodide staining based confocal laser-scanning microscopic analysis; type: cell membranes
[20] = tested on: Pseudomonas aeruginosa; assay: Antibacterial activity against Pseudomonas aeruginosa PAO1 infected in Caenorhabditis elegans assessed as increase in worm survival rate at 2 times MIC incubated for 60 hrs relative to control; type: functional
[21] = tested on: Staphylococcus aureus; assay: Bactericidal activity against Staphylococcus aureus ATCC 25923 assessed as inhibition of bacterial growth at 1 to 2 times MIC incubated upto 24 hrs by time-kill based microplate reader assay; type: functional, organism-based
[22] = tested on: Pseudomonas aeruginosa; assay: Antibacterial activity against Pseudomonas aeruginosa PAO1 assessed as inhibition of bacterial growth at 2 times MIC incubated upto 24 hrs in presence of Fe(III) by time-kill based microplate reader assay; type: functional, organism-based
[23] = tested on: Cell membrane; assay: Disruption of cell membrane integrity in Pseudomonas aeruginosa PAO1 assessed as increase in protein leakage at 0.5 to 4 MIC incubated for 6 hrs by BCA protein assay; type: cell membranes
[24] = tested on: Pseudomonas aeruginosa; assay: Antibacterial activity against Pseudomonas aeruginosa PAO1 assessed as inhibition of bacterial growth at 1 to 4 times MIC incubated upto 24 hrs by time-kill based microplate reader assay; type: functional, organism-based
[25] = tested on: Vero; assay: Cytotoxicity against green monkey Vero cells assessed as reduction in cell viability at > 32 ug/ml incubated for 24 hrs by MTT assay; type: toxicity, cell-based; settings: chlorocebus sabaeus, dose > 32 µg/ml
[26] = tested on: Staphylococcus aureus; assay: Antibacterial activity against Staphylococcus aureus ATCC 25923 assessed as inhibition of bacterial growth incubated for 18 to 20 hrs in presence of M9 medium by broth microdilution assay; type: functional, organism-based; settings: time 18-20 hrs
[27] = tested on: Staphylococcus aureus; assay: Bactericidal activity against Staphylococcus aureus ATCC 25923 assessed as inhibition of bacterial growth at 2 times MIC incubated upto 24 hrs by time-kill based microplate reader assay; type: functional, organism-based
[28] = tested on: Pseudomonas aeruginosa; assay: Antibacterial activity against Pseudomonas aeruginosa PAO1 assessed as inhibition of bacterial growth at 32 ug/ml incubated upto 24 hrs by time-kill based microplate reader assay; type: functional, organism-based; settings: dose 32.0 µg/ml
[29] = tested on: Pseudomonas aeruginosa; assay: Antibacterial activity against Pseudomonas aeruginosa PAO1 infected in Caenorhabditis elegans assessed as increase in worm survival rate at 32 ug/ml incubated for 60 hrs; type: functional, organism-based; settings: dose 32.0 µg/ml
[30] = tested on: Vero; assay: Cytotoxicity against green monkey Vero cells assessed as reduction in cell viability at 1 to 32 ug/ml incubated for 24 hrs by MTT assay; type: toxicity, cell-based; settings: chlorocebus sabaeus, dose 1-32 µg/ml

SMILES	MIC [1]	MIC [2]	MIC [3]	IC50 [4]	MIC [5]	MIC [6]	IC50 [7]	MIC [8]	MIC [9]	MIC [10]	MIC [11]	IC50 [12]	MIC [13]	MIC [14]	other results
CC(C)=CCc1c(OCCCCn2cc(COCc3cc(=O)c(O)cn3C)nn2)ccc(C(=O)/C=C/c2ccc(O)cc2)c1O	32 µg/mL	16 µg/mL	16 µg/mL	17.8 µg/mL	> 128 µg/mL	16 µg/mL	> 128 µg/mL	16 µg/mL	> 128 µg/mL	> 128 µg/mL	32 µg/mL	2.55 µg/mL	8 µg/mL	32 µg/mL	–
CC(C)=CCc1c(O)ccc(C(=O)/C=C/c2ccc(OCCCOCc3cc(=O)c(O)cn3C)cc2)c1O	32 µg/mL	8 µg/mL	16 µg/mL	16.8 µg/mL	> 128 µg/mL	8 µg/mL	> 128 µg/mL	16 µg/mL	> 128 µg/mL	> 128 µg/mL	32 µg/mL	1.45 µg/mL	8 µg/mL	32 µg/mL	Activity [15]: Non-Toxic; Activity [16]: Dose-Dependent Effect; Activity [17]: inactive; Activity [18]: Active; Activity [19]: Dose-Dependent Effect; Survival [20]: 55%; Activity [21]: inactive; Activity [22]: inactive; Activity [23]: Active; Activity [24]: Active; Activity [25]: Toxic
CC(C)=CCc1c(O)ccc(C(=O)/C=C/c2ccc(OCCCCCCOCc3c(O)c(=O)cc(C)n3C)cc2)c1O	32 µg/mL	16 µg/mL	32 µg/mL	10.2 µg/mL	> 128 µg/mL	8 µg/mL	> 128 µg/mL	32 µg/mL	> 128 µg/mL	> 128 µg/mL	> 128 µg/mL	7.87 µg/mL	8 µg/mL	> 128 µg/mL	Activity [26]: inactive
CC(C)=CCc1c(OCCCCn2cc(COCc3c(O)c(=O)cc(C)n3C)nn2)ccc(C(=O)/C=C/c2ccc(O)cc2)c1O	32 µg/mL	32 µg/mL	16 µg/mL	29.4 µg/mL	> 128 µg/mL	16 µg/mL	> 128 µg/mL	32 µg/mL	> 128 µg/mL	> 128 µg/mL	64 µg/mL	3.64 µg/mL	8 µg/mL	32 µg/mL	–
CC(C)=CCc1c(O)ccc(C(=O)/C=C/c2ccc(O)cc2)c1O [ISOBAVACHALCONE]	> 128 µg/mL	> 128 µg/mL	> 128 µg/mL	> 128 µg/mL	> 128 µg/mL	> 128 µg/mL	> 128 µg/mL	> 128 µg/mL	> 128 µg/mL	> 128 µg/mL	> 128 µg/mL	> 128 µg/mL	> 128 µg/mL	4 µg/mL	Activity [27]: Active; Activity [28]: inactive; Activity [29]: inactive; Activity [30]: Non-Toxic
CC(C)=CCc1c(OCCCCCC(=O)NCc2cc(=O)c(O)cn2C)ccc(C(=O)/C=C/c2ccc(O)cc2)c1O	32 µg/mL	8 µg/mL	16 µg/mL	19.7 µg/mL	> 128 µg/mL	16 µg/mL	> 128 µg/mL	16 µg/mL	> 128 µg/mL	> 128 µg/mL	32 µg/mL	1.72 µg/mL	8 µg/mL	32 µg/mL	–
CCn1cc(C(=O)O)c(=O)c2cc(F)c(N3CCNCC3)cc21 [NORFLOXACIN]	1 µg/mL	0.25 µg/mL	0.5 µg/mL	0.03 µg/mL	2 µg/mL	1 µg/mL	0.07 µg/mL	0.25 µg/mL	0.25 µg/mL	0.015 µg/mL	0.125 µg/mL	0.08 µg/mL	0.5 µg/mL	2 µg/mL	–
CC(C)=CCc1c(O)ccc(C(=O)/C=C/c2ccc(OCCCCCCOCc3cc(=O)c(O)cn3C)cc2)c1O	32 µg/mL	8 µg/mL	16 µg/mL	7.31 µg/mL	> 128 µg/mL	8 µg/mL	> 128 µg/mL	16 µg/mL	> 128 µg/mL	> 128 µg/mL	16 µg/mL	3.39 µg/mL	8 µg/mL	> 128 µg/mL	Activity [26]: inactive
CC1(C)S[C@@H]2[C@H](NC(=O)[C@H](N)c3ccccc3)C(=O)N2[C@H]1C(=O)O [AMPICILLIN]	> 128 µg/mL	> 128 µg/mL	> 128 µg/mL	12.6 µg/mL	> 128 µg/mL	> 128 µg/mL	6.06 µg/mL	32 µg/mL	32 µg/mL	8 µg/mL	32 µg/mL	12.7 µg/mL	> 128 µg/mL	0.25 µg/mL	–
CC(C)=CCc1c(O)ccc(C(=O)/C=C/c2ccc(OCCCCCC(=O)NCc3cc(=O)c(O)cn3C)cc2)c1O	32 µg/mL	32 µg/mL	16 µg/mL	19.4 µg/mL	> 128 µg/mL	32 µg/mL	> 128 µg/mL	16 µg/mL	> 128 µg/mL	> 128 µg/mL	32 µg/mL	1.46 µg/mL	16 µg/mL	32 µg/mL	–
CC(C)=CCc1c(O)ccc(C(=O)/C=C/c2ccc(OCCCOCc3c(O)c(=O)cc(C)n3C)cc2)c1O	32 µg/mL	8 µg/mL	16 µg/mL	16.2 µg/mL	> 128 µg/mL	16 µg/mL	> 128 µg/mL	16 µg/mL	> 128 µg/mL	> 128 µg/mL	32 µg/mL	3.27 µg/mL	16 µg/mL	32 µg/mL	–
